Experimental data as given in patent publication US20250295646A1, “METHODS OF USE OF T-TYPE CALCIUM CHANNEL MODULATORS” (Praxis Precision Medicines, Inc., priority 2022, published 2025).

Experiments:
[1] = system: adult patients with essential tremor; assay: Example 16 Part B: QUEST total score; assay type: in vivo, human; details: for QUEST total score, LS mean change from randomization baseline (Day 42): Formula (I) group; for QUEST total score, LS mean change from pre-dose baseline: Part B OLT
From the text: (§1) Patients were scheduled for Safety Follow-up on Day 70 (±1 day) in the clinic for the final clinical trial assessment.

[2] = Within-participant escalating dose trial Part B (20-120 mg titration): pharmacokinetics; details: titrated dosing schedule
Method: Each participant completed 3 study periods: Screening, Treatment period (12 or 31 days), and Safety follow-up.
Participants were healthy males and females between the ages of 18 and 55 years old.
In Part B, a randomized controlled trial was conducted.

[3] = system: adult patients with essential tremor; assay: Example 16: Clinical Global Impression (CGI-I, CGI-S); assay type: in vivo, human; details: for participants with CGI-I much improved / participants with CGI-I score reflecting no change in symptoms: Part B OLT
From the text: as §1

[4] = Phase 1 SAD/MAD safety and tolerability of formulation 3; assay type: in vivo, human; details: single 60 mg without titration, 6 healthy volunteers
Method: This was a 2-part, Phase 1 double blind, placebo controlled trial to assess the safety, tolerability, pharmacokinetics, and pharmacodynamics (including the KSS, the KDT, the SQSQ and 24-hour EEG recordings), of single, ascending (Part A: 20, 40, and 60 mg) and multiple, ascending (Part B: 20 and 40 mg for 8 days) doses of the 20 mg tablet (formulation 3) in healthy participants. […] Variability in Cmax and AUC increased with increasing dose following a single oral dose of the 20 mg tablet formulation (formulation 3) (FIG. 16).
Adverse events for the doses of 20 and 40 mg were transient and occurred at a rate similar to placebo. The following TEAEs were observed, all of which were mild to moderate: […]

[5] = Within-participant escalating dose trial Part A (5-20 mg): pharmacokinetics; assay type: in vivo, human; details: single 5 mg dose, healthy volunteers
Method: In Part A, an open label trial was conducted.

[6] = system: sigma band EEG power during NREM sleep; assay: EEG/PSG: sigma band EEG power during NREM sleep; assay type: in vivo, human; details: for NREM Sigma Power Ratio from Baseline / NREM sigma power from baseline, LS Means: N = 10
Method: The effects of multiple doses of a wider dose range (Part A: 5, 10, 20 mg; Part B: 60, 80, 100, 120 mg) on sigma band EEG power during NREM sleep were also evaluated as part of the protocol described in Example 11, above. 24-hour EEG/PSG recordings were performed the day before dosing (baseline day) and after dosing on Days 4, 8, and 12 (for Part A) or Days 10, 17, 24, and 31 (for Part B). Part B also included placebo-treated participants for statistical comparisons.
The pharmacokinetic/pharmacodynamic (PKPD) effects of administration a compound of formula (II) on EEG were also evaluated. The recording of the NREM sigma absolute power was reported as a single summary value of a single night of sleep following each dose on pre-specified days (baseline and Days 4, 8 and 12 for Example 11, Part A and Days 10, 17, 24, and 31 for Part B, as set forth in Tables 22 and 23, above. Each NREM sigma absolute power value was paired with a model predicted average plasma concentration (Cave) that corresponded to the 24-hour EEG recording period on the respective study day. For example, if the period of EEG recording for an individual was from 6 am on Day 4 to 6 am on Day 5, then the corresponding Cave was calculated as the average of the individual's model-predicted concentrations (sampled every 30 minutes) from that same time period. The resulting PKPD data were analyzed in a mixed-effects modelling framework using NONlinear Mixed Effects Modeling (NONMEM) software. The change from baseline NREM sigma absolute power was specified as the outcome and the primary explanatory variable was the Cave of a compound of formula (II).
The population PK model was used to generate Cave for NREM sigma absolute power and concentrations for EO and EC gamma absolute power. For NREM sigma absolute power, the Cave was computed for the final day of each dose level over the EEG collection interval. For EO and EC gamma absolute power, concentrations at 4 hours post-dose and 23.75 hours post-dose were generated on the final day of each dose level. The final population PKPD models for NREM sigma absolute power and EO and EC gamma absolute power were then used to generate corresponding EEG responses.

[7] = target: T1, hCav3.1 (Homo sapiens, UniProt O43497); assay: PatchXpress patch clamp, voltage dependent block (half-inactivated state); assay type: cell-based
T1 construct: expressed in transfected cells; host or cells: HEK-293
T1 sequence (O43497 whole entry): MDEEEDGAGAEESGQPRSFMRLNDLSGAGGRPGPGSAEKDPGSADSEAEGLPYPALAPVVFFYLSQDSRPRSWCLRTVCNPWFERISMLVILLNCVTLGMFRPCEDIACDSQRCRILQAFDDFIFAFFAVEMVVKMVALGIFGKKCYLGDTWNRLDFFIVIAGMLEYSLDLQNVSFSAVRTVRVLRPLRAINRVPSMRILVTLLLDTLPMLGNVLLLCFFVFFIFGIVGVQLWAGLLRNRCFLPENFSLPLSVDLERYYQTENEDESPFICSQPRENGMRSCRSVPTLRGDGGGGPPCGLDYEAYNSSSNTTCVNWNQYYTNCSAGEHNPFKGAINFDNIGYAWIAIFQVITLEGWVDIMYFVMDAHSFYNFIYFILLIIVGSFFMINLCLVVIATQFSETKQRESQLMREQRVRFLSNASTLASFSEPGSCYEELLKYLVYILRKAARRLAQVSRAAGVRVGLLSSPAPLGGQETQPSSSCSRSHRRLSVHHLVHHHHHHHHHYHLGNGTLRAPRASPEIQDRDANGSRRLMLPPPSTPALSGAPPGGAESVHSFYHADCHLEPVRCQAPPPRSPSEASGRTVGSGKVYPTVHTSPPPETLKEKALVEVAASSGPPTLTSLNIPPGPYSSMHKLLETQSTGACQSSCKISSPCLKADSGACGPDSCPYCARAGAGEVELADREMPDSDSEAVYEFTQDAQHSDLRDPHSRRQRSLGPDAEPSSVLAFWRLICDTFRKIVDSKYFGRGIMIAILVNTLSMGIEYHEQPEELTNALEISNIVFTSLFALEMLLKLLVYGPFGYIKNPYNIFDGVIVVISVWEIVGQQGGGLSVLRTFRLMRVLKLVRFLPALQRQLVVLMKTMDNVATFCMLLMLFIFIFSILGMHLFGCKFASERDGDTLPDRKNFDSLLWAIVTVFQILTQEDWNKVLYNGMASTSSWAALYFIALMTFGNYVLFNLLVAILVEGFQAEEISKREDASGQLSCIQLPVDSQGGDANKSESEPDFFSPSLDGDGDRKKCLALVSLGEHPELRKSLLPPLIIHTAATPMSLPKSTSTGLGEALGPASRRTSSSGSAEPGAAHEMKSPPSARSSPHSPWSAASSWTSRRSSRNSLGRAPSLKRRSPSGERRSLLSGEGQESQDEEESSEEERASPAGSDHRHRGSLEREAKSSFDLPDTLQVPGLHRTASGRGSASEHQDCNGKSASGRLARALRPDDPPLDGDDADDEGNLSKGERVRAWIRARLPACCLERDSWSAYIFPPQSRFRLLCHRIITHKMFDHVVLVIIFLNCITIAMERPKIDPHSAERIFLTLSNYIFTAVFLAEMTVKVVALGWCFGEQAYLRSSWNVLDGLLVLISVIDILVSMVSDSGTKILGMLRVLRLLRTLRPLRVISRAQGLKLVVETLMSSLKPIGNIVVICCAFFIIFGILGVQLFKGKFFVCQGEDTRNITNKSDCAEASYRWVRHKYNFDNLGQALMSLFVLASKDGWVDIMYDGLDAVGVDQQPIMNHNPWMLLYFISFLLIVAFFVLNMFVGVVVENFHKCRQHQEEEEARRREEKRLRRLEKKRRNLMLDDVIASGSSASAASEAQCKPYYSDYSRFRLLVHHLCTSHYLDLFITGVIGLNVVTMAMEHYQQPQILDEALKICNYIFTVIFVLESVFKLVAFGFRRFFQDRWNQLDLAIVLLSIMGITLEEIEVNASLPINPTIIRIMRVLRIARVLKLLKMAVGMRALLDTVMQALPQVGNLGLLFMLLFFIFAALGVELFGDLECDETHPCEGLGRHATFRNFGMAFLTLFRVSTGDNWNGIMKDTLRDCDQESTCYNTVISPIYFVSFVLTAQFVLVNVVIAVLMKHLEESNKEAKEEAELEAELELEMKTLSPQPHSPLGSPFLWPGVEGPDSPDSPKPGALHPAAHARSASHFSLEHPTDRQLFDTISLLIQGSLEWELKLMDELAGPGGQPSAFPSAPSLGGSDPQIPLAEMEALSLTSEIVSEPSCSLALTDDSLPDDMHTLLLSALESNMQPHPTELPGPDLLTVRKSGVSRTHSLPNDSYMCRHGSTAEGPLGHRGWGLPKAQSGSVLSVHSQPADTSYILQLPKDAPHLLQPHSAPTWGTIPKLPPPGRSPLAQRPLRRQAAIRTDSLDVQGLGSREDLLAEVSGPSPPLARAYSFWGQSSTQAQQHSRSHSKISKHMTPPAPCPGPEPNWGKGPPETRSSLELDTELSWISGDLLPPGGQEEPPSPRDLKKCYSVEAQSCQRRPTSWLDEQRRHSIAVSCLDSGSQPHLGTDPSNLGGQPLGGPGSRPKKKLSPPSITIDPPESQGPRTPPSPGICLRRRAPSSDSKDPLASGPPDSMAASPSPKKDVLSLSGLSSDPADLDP

[8] = Part B RWD (RWAS), Day 56, n 6, change from randomization baseline
[9] = Part B RWD (RWAS), Day 70, n 5, change from randomization baseline

CC(C)(C)NC(=O)CN1CCC(CNC(=O)c2cc(F)cc(Cl)c2)CC1 [compound of formula (I), N-((1-(2-(tert-butylamino)-2-oxoethyl)piperidin-4-yl)methyl)-3-chloro-5-fluorobenzamide]
QUEST total score, LS mean change from randomization baseline (Day 42) ([1]; Day 70 follow-up): 1.741
QUEST total score, LS mean change from pre-dose baseline ([1]; Day 7): −0.561
QUEST total score, LS mean change from pre-dose baseline ([1]; Day 21): −5.933
QUEST total score, LS mean change from pre-dose baseline ([1]; Day 42): −8.203
QUEST total score, LS mean change from randomization baseline (Day 42) ([1]; Part B RWD, Day 56): −1.322
increase of Cmax and AUC24 above values of a lower dosage not tolerated without titration [2]: 2-3 fold
CGI-I Score 0 not assessed ([3]; Part A (FAS), Day 7, n 6): 0 n (%)
CGI-I Score 1 very much improved ([3]; Part A (FAS), Day 7, n 6): 0 n (%)
CGI-I Score 2 Much improved ([3]; Part A (FAS), Day 7, n 6): 1 n (%)
CGI-I Score 3 minimally improved ([3]; Part A (FAS), Day 7, n 6): 1 (16.7) n (%)
CGI-I Score 4 no change ([3]; Part A (FAS), Day 7, n 6): 4 (66.7) n (%)
CGI-I Score 5 minimally worse ([3]; Part A (FAS), Day 7, n 6): 0 n (%)
CGI-I Score 6 much worse ([3]; Part A (FAS), Day 7, n 6): 0 n (%)
CGI-I Score 7 very much worse ([3]; Part A (FAS), Day 7, n 6): 0 n (%)
CGI-I Score 0 not assessed ([3]; Part A (FAS), Day 14, n 6): 0 n (%)
CGI-I Score 1 very much improved ([3]; Part A (FAS), Day 14, n 6): 0 n (%)
CGI-I Score 2 Much improved ([3]; Part A (FAS), Day 14, n 6): 1 n (%)
CGI-I Score 3 minimally improved ([3]; Part A (FAS), Day 14, n 6): 5 (83.3) n (%)
CGI-I Score 4 no change ([3]; Part A (FAS), Day 14, n 6): 0 n (%)
CGI-I Score 5 minimally worse ([3]; Part A (FAS), Day 14, n 6): 0 n (%)
CGI-I Score 6 much worse ([3]; Part A (FAS), Day 14, n 6): 0 n (%)
CGI-I Score 7 very much worse ([3]; Part A (FAS), Day 14, n 6): 0 n (%)
participants with CGI-I score not changed relative to pre-dose baseline ([3]; Part A, Day 7): 66.7%
participants with CGI score minimally improved ([3]; Part A, Day 14): 83.3%
participants with CGI score much improved ([3]; Part A, Day 14): 16.7%
CGI-I Score 0 not assessed ([3]; Part B OLT (FAS), Day 7, n 12): 1 (8.3) n (%)
CGI-I Score 1 very much improved ([3]; Part B OLT (FAS), Day 7, n 12): 0 n (%)
CGI-I Score 2 Much improved ([3]; Part B OLT (FAS), Day 7, n 12): 1 n (%)
CGI-I Score 3 minimally improved ([3]; Part B OLT (FAS), Day 7, n 12): 5 (41.7) n (%)
CGI-I Score 4 no change ([3]; Part B OLT (FAS), Day 7, n 12): 4 (33.3) n (%)
CGI-I Score 5 minimally worse ([3]; Part B OLT (FAS), Day 7, n 12): 1 (8.3) n (%)
CGI-I Score 6 much worse ([3]; Part B OLT (FAS), Day 7, n 12): 0 n (%)
CGI-I Score 7 very much worse ([3]; Part B OLT (FAS), Day 7, n 12): 0 n (%)
CGI-I Score 0 not assessed ([3]; Part B OLT (FAS), Day 21, n 12): 0 n (%)
CGI-I Score 1 very much improved ([3]; Part B OLT (FAS), Day 21, n 12): 1 (8.3) n (%)
CGI-I Score 2 Much improved ([3]; Part B OLT (FAS), Day 21, n 12): 1 n (%)
CGI-I Score 3 minimally improved ([3]; Part B OLT (FAS), Day 21, n 12): 5 (41.7) n (%)
CGI-I Score 4 no change ([3]; Part B OLT (FAS), Day 21, n 12): 5 (41.7) n (%)
CGI-I Score 5 minimally worse ([3]; Part B OLT (FAS), Day 21, n 12): 0 n (%)
CGI-I Score 6 much worse ([3]; Part B OLT (FAS), Day 21, n 12): 0 n (%)
CGI-I Score 7 very much worse ([3]; Part B OLT (FAS), Day 21, n 12): 0 n (%)
CGI-I Score 0 not assessed ([3]; Part B OLT (FAS), Day 42, n 11): 0 n (%)
CGI-I Score 1 very much improved ([3]; Part B OLT (FAS), Day 42, n 11): 0 n (%)
CGI-I Score 2 Much improved ([3]; Part B OLT (FAS), Day 42, n 11): 4 n (%)
CGI-I Score 3 minimally improved ([3]; Part B OLT (FAS), Day 42, n 11): 4 (36.4) n (%)
CGI-I Score 4 no change ([3]; Part B OLT (FAS), Day 42, n 11): 3 (27.3) n (%)
CGI-I Score 5 minimally worse ([3]; Part B OLT (FAS), Day 42, n 11): 0 n (%)
CGI-I Score 6 much worse ([3]; Part B OLT (FAS), Day 42, n 11): 0 n (%)
CGI-I Score 7 very much worse ([3]; Part B OLT (FAS), Day 42, n 11): 0 n (%)
participants with CGI-I much improved ([3]; Day 7): 8.3%
participants with CGI-I score reflecting no change in symptoms ([3]; Day 7): 33.3%
participants with CGI-I much improved ([3]; Day 42): 36.4%
participants with CGI-I score reflecting no change in symptoms ([3]; Day 42): 27.3%
CGI-I Score 0 not assessed [3, 8]: 0 n (%)
CGI-I Score 1 very much improved [3, 8]: 0 n (%)
CGI-I Score 2 Much improved [3, 8]: 0 n (%)
CGI-I Score 3 minimally improved [3, 8]: 1 (16.7) n (%)
CGI-I Score 4 no change [3, 8]: 5 (83.3) n (%)
CGI-I Score 5 minimally worse [3, 8]: 0 n (%)
CGI-I Score 6 much worse [3, 8]: 0 n (%)
CGI-I Score 7 very much worse [3, 8]: 0 n (%)
CGI-I Score 0 not assessed [3, 9]: 0 n (%)
CGI-I Score 1 very much improved [3, 9]: 0 n (%)
CGI-I Score 2 Much improved [3, 9]: 0 n (%)
CGI-I Score 3 minimally improved [3, 9]: 0 n (%)
CGI-I Score 4 no change [3, 9]: 4 (80.0) n (%)
CGI-I Score 5 minimally worse [3, 9]: 1 (20.0) n (%)
CGI-I Score 6 much worse [3, 9]: 0 n (%)
CGI-I Score 7 very much worse [3, 9]: 0 n (%)
tolerability [4]: not tolerated
time by which plasma concentrations were quantifiable [5]: ≤ 0.50 h

CC(C)(C)NC(=O)CN1CCC(CNC(=O)c2cc(F)cc(Cl)c2)CC1.Cl [compound of formula (II), N-((1-(2-(tert-butylamino)-2-oxoethyl)piperidin-4-yl)methyl)-3-chloro-5-fluorobenzamide hydrochloride]
sigma band EEG power during NREM sleep, change from baseline ([6]; 5-120 mg, plateaued after Day 17 (80 mg)): dose-dependent decrease
NREM sigma power, Formula (II) v. Placebo Difference ([6]; Day 10): −0.597
NREM sigma power, Formula (II) v. Placebo Ratio ([6]; Day 10): 0.550
NREM Sigma Power Ratio from Baseline ([6]; Day 10 (60 mg)): 0.581
NREM sigma power from baseline, LS Means ([6]; Day 10 (60 mg)): −0.542
NREM sigma power, Formula (II) v. Placebo Difference ([6]; Day 17): −0.697
NREM sigma power, Formula (II) v. Placebo Ratio ([6]; Day 17): 0.498
NREM Sigma Power Ratio from Baseline ([6]; Day 17 (80 mg)): 0.646
NREM sigma power from baseline, LS Means ([6]; Day 17 (80 mg)): −0.437
NREM sigma power, Formula (II) v. Placebo Difference ([6]; Day 24): −0.729
NREM sigma power, Formula (II) v. Placebo Ratio ([6]; Day 24): 0.482
NREM Sigma Power Ratio from Baseline ([6]; Day 24 (100 mg)): 0.498
NREM sigma power from baseline, LS Means ([6]; Day 24 (100 mg)): −0.698
NREM sigma power, Formula (II) v. Placebo Difference ([6]; Day 31): −0.679
NREM sigma power, Formula (II) v. Placebo Ratio ([6]; Day 31): 0.507
NREM Sigma Power Ratio from Baseline ([6]; Day 31 (120 mg)): 0.574
NREM sigma power from baseline, LS Means ([6]; Day 31 (120 mg)): −0.556
tonic block/voltage dependent block (TB/VDB) ratio [7]: 3.8
